Experimental data as given in ChEMBL document CHEMBL4680227, “Design and synthesis of selective degraders of EGFR mutant” (Eur J Med Chem, 2020).

Assays:
[1] = biological target: E3 ubiquitin-protein ligase Mdm2/Epidermal growth factor receptor (Homo sapiens, UniProt Q00987+P00533); assay: Protac activity at MDM2/EGFR in human A431 cells assessed as EGFR degradation by Western blot analysis; format: cell-based; details: a-431
[2] = biological target: E3 ubiquitin-protein ligase Mdm2/Epidermal growth factor receptor (Homo sapiens, UniProt Q00987+P00533, T790M/L858M); assay: (§1) Protac activity at MDM2/EGFR L858R/T790M mutant in human NCI-H1975 cells assessed as EGFR degradation by Western blot analysis; format: cell-based
[3] = biological target: Baculoviral IAP repeat-containing protein 2/Epidermal growth factor receptor (Homo sapiens, UniProt P00533+Q13490); assay: Protac activity at cIAP1/EGFR in human A431 cells assessed as EGFR degradation by Western blot analysis; format: cell-based; details: a-431
[4] = biological target: Protein cereblon/Epidermal growth factor receptor (Homo sapiens, UniProt P00533+Q96SW2); assay: Protac activity at CRBN/EGFR in human A431 cells assessed as EGFR degradation by Western blot analysis; format: cell-based; details: a-431
[5] = biological target: Epidermal growth factor receptor (Homo sapiens, UniProt P00533); assay: Induction of EGFR degradation in human A431 cells by Western blot analysis; details: a-431
[6] = biological target: Epidermal growth factor receptor (Homo sapiens, UniProt P00533, T790M/L858R); assay: Induction of EGFR L858R/T790M mutant degradation in human NCI-H1975 cells by Western blot analysis
[7] = biological target: von Hippel-Lindau disease tumor suppressor/Epidermal growth factor receptor (Homo sapiens, UniProt P00533+P40337); assay: Protac activity at VHL/EGFR in human A431 cells assessed as EGFR degradation by Western blot analysis; format: cell-based; details: a-431
[8] = biological target: von Hippel-Lindau disease tumor suppressor/Epidermal growth factor receptor (Homo sapiens, UniProt P00533+P40337, T790M/L858R); assay: Protac activity at VHL/EGFR L858R/T790M mutant in human NCI-H1975 cells assessed as EGFR degradation by Western blot analysis; format: cell-based
[9] = system: E3 ubiquitin-protein ligase Mdm2/Epidermal growth factor receptor (Homo sapiens), Q00987+P00533 [T790M,L858M]; assay: as §1; format: cell-based

Chain of E3 ubiquitin-protein ligase Mdm2/Epidermal growth factor receptor (Homo sapiens, UniProt Q00987+P00533, T790M/L858M) (P00533 whole entry, looked up, stated change not applied): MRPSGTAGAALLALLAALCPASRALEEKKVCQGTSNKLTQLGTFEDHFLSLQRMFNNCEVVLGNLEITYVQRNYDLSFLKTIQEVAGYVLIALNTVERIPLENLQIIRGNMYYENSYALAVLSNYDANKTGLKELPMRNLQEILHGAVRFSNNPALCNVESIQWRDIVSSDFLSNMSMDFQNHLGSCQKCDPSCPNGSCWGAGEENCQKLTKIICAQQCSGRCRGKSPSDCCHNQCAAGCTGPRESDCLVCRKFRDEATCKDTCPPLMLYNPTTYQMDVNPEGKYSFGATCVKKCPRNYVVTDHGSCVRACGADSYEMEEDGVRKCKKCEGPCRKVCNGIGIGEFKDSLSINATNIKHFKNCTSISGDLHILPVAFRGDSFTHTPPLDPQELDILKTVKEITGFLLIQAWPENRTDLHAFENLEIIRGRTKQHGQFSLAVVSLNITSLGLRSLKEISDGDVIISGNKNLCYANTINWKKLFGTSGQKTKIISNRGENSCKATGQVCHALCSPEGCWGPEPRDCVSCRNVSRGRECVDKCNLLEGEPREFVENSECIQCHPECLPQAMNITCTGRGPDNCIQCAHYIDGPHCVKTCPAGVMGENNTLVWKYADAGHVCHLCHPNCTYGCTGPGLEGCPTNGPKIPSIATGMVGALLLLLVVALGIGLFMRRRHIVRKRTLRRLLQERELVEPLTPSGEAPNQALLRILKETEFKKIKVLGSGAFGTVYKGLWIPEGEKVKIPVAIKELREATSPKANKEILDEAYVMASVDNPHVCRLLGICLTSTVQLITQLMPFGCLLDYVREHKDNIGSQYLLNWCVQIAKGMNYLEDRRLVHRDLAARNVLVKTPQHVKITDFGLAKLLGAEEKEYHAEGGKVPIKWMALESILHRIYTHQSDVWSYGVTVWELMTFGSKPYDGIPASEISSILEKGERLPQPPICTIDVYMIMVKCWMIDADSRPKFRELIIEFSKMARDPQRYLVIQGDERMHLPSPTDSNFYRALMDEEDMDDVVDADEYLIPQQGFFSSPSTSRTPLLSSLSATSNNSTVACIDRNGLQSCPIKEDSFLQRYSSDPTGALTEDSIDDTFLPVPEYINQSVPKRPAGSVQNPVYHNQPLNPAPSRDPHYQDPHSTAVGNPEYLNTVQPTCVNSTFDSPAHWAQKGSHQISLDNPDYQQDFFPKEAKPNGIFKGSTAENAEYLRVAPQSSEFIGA
Chain of E3 ubiquitin-protein ligase Mdm2/Epidermal growth factor receptor (Homo sapiens, UniProt Q00987+P00533, T790M/L858M) (Q00987 whole entry, looked up, stated change not applied): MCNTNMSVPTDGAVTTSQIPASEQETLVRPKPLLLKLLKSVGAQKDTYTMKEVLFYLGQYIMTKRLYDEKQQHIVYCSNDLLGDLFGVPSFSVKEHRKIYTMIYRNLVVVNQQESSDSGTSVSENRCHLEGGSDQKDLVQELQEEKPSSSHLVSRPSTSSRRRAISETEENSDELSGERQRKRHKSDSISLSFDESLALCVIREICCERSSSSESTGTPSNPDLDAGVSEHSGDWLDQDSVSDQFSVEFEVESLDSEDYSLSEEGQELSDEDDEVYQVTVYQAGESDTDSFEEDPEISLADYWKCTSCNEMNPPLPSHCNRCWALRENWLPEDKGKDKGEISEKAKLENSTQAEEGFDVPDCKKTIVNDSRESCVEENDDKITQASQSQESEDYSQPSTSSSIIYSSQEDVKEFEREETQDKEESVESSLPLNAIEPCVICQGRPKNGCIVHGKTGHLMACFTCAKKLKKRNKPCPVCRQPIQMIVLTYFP
Chain of E3 ubiquitin-protein ligase Mdm2/Epidermal growth factor receptor (Homo sapiens, UniProt Q00987+P00533) (Q00987 whole entry): as the sequence (Q00987 whole entry, looked up, stated change not applied) above
Chain of E3 ubiquitin-protein ligase Mdm2/Epidermal growth factor receptor (Homo sapiens, UniProt Q00987+P00533) (P00533 whole entry): as the sequence (P00533 whole entry, looked up, stated change not applied) above
Chain of von Hippel-Lindau disease tumor suppressor/Epidermal growth factor receptor (Homo sapiens, UniProt P00533+P40337) (P00533 whole entry): as the sequence (P00533 whole entry, looked up, stated change not applied) above
Chain of von Hippel-Lindau disease tumor suppressor/Epidermal growth factor receptor (Homo sapiens, UniProt P00533+P40337) (P40337 whole entry): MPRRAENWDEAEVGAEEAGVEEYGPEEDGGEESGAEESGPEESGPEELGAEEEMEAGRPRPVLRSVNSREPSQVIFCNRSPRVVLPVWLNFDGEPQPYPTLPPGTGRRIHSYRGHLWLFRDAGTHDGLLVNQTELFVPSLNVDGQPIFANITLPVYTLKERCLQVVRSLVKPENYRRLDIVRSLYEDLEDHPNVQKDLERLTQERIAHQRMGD

In the case of `C=CC(=O)Nc1cccc(-n2c(=O)cc(C)c3cnc(Nc4ccc(N5CCN(C(=O)CCCCCNC(=O)c6ccc(NC(=O)[C@@H]7N[C@@H](CC(C)(C)C)[C@](C#N)(c8ccc(Cl)cc8F)[C@H]7c7cccc(Cl)c7F)c(OC)c6)CC5)cc4OC)nc32)c1`, the DC50 [1] was > 2000 nM and the DC50 [2] was 77 nM.

For `C=CC(=O)Nc1cccc(-n2c(=O)cc(C)c3cnc(Nc4ccc(N5CCN(C(=O)CCCCCCCCCCCNC(=O)[C@H](CC(C)C)NC(=O)[C@@H](O)[C@H](N)Cc6ccccc6)CC5)cc4OC)nc32)c1`, the DC50 [3] was > 2000 nM.

For `C=CC(=O)Nc1cccc(-n2c(=O)cc(C)c3cnc(Nc4ccc(N5CCN(C(=O)CCCCCCCCCCC(=O)Nc6cccc7c6C(=O)N(C6CCC(=O)NC6=O)C7=O)CC5)cc4OC)nc32)c1` (stereo not given), the DC50 [4] was > 2000 nM.

In the case of `C=CC(=O)Nc1cccc(-n2c(=O)cc(C)c3cnc(Nc4ccc(N5CCN(C)CC5)cc4OC)nc32)c1`, the DC50 [5] was > 2000 nM and the DC50 [6] was > 2000 nM.

`C=CC(=O)Nc1cccc(-n2c(=O)cc(C)c3cnc(Nc4ccc(N5CCN(C(=O)CCCCCCCCCNC(=O)c6ccc(NC(=O)[C@@H]7N[C@@H](CC(C)(C)C)[C@](C#N)(c8ccc(Cl)cc8F)[C@H]7c7cccc(Cl)c7F)c(OC)c6)CC5)cc4OC)nc32)c1` was tested, and the DC50 [1] was > 2000 nM and the DC50 [2] was 313 nM.

In the case of `C=CC(=O)Nc1cccc(-n2c(=O)cc(C)c3cnc(Nc4ccc(N5CCN(CCCCCCCC(=O)N[C@H](C(=O)N6C[C@H](O)C[C@H]6C(=O)NCc6ccc(-c7scnc7C)cc6)C(C)(C)C)CC5)cc4OC)nc32)c1`, the DC50 [7] was > 2000 nM and the DC50 [8] was 466 nM.

In the case of `C=CC(=O)Nc1cccc(-n2c(=O)cc(C)c3cnc(Nc4ccc(N5CCN(C(=O)CCCCCCCCCCCNC(=O)c6ccc(NC(=O)[C@@H]7N[C@@H](CC(C)(C)C)[C@](C#N)(c8ccc(Cl)cc8F)[C@H]7c7cccc(Cl)c7F)c(OC)c6)CC5)cc4OC)nc32)c1`, the DC50 [1] was > 2000 nM, the DC50 [2] was 264 nM and the Activity [9] was “Dose-dependent effect”.

In the case of `C=CC(=O)Nc1cccc(-n2c(=O)cc(C)c3cnc(Nc4ccc(N5CCN(CCCCCCCCCCCC(=O)N[C@H](C(=O)N6C[C@H](O)C[C@H]6C(=O)NCc6ccc(-c7scnc7C)cc6)C(C)(C)C)CC5)cc4OC)nc32)c1`, the DC50 [7] was 50.3 nM and the DC50 [8] was > 2000 nM.
